We go through 1 molecule from patent US20260226049A1, “NITROGEN-CONTAINING HETEROCYCLIC COMPOUND, PREPARATION METHOD THEREFOR, AND USE THEREOF” (BIVISION PHARMACEUTICALS, INC, priority 2023, published 2026).

Where two headings read alike, the source gives them in different places. Bounds are passed on as bounds.

For one assay, the system named is HT1080 8 #cells. The assay can be described thus: Cell competitive binding assay against ^177Lu-radiolabeled FAPi-46. How it is done:
(1) HT1080 8 #cells in the logarithmic growth phase were prepared into a cell suspension, and the cell density was adjusted to 1×10^4/mL. 1 mL of the suspension was seeded into a 24-well cell culture plate. The plate was incubated overnight in a 37° C. incubator.
(2) The cell culture medium was aspirated, and the cells were washed once with PBS, followed by the addition of 975 μL of additive-free medium.
(3) To each well, 25 µL of ^177Lu-radiolabeled FAPi-46 (Nanchang Tanzhen Biotechnology Co., Ltd., CAS: 2374782-04-2) at a fixed concentration (final concentration in culture medium: 1.35 μCi/mL) and varying concentrations (final concentrations in culture medium: 1000 ng/mL, 100 ng/ml, 10 ng/ml, 1 ng/mL, 0.1 ng/ml, 0.01 ng/mL, 0.001 ng/mL, 0 ng/ml) of unlabeled test compounds JHH8, JHDB8, and JHH9 were added.
(4) The mixture was incubated on ice for 2 hours.
(5) The cells were washed three times with ice-cold PBS.
(6) The cells were lysed with 0.5 mL of 1 M sodium hydroxide, washed twice with 0.5 mL of PBS, and the sodium hydroxide solution (0.5 mL) and PBS solutions (0.5 mL×2) were collected for uptake counting.
The control compound was OncoFAP-DOTAGA (structural formula: […]
The cell competitive binding of compounds JHH5, JHH4, JHH10, JHH8, H4b, H5b, and H8b was tested in the same batch using the above method, and the experimental results are shown in Table 3 and FIG. 3.

Assay [1] addresses T1, recombinant human prolyl oligopeptidase (PREP) (Homo sapiens, UniProt P48147).
T1 sequence (P48147 1-710): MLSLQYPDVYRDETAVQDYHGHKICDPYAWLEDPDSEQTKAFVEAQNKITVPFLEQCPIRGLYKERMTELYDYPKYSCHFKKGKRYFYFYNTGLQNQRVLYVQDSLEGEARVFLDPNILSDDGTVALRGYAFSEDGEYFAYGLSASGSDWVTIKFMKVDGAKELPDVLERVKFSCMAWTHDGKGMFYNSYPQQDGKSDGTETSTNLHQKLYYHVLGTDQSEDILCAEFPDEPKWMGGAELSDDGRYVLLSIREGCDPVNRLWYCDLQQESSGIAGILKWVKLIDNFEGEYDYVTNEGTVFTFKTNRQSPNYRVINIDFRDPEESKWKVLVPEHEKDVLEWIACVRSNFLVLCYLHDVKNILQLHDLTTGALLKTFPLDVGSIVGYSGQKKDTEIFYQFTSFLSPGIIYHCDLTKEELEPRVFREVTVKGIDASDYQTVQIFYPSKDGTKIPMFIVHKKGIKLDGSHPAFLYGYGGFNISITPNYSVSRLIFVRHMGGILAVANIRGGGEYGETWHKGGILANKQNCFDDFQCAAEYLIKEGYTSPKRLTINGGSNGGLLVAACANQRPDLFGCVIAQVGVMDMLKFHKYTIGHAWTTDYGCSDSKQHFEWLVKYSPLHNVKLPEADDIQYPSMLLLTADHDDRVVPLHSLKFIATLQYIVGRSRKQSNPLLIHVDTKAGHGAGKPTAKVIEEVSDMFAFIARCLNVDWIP
Put plainly: Selective assay, protease inhibition (PREP). It counts as biochemical. The note with it: substrate Z-Gly-Pro-AMC. The procedure:
The specificity of the synthesized compounds against recombinant human dipeptidyl peptidase IV (DPPIV), fibroblast activation protein (FAP), or prolyl oligopeptidase (PREP) was expressed by their half-maximal inhibitory concentration (IC50) against the proteases.
1) The synthesized compound was dissolved in DMSO to a final concentration of 100 mM.
c) For PREP assay: The test compound was diluted to a 1 mM solution using a 140 mM NaCl buffer at pH 8.0.
2) The prepared 1 mM test compound solution was serially diluted (1:10) into a row of a 96-well plate using the corresponding buffer mentioned above.
3) The substrate was prepared as a DMSO stock solution (FAP and PREP: 2.5 mM Z-Gly-Pro-AMC (VWR, Cat. No. I-1145.0050BA) in DMSO; DPPIV: 100 mM Gly-Pro-AMC (VWR, Cat. No. 100042-646) in DMSO), and subsequently the substrate stock solution was diluted 20-fold using the corresponding buffer mentioned above.
4) The enzyme was diluted into the appropriate assay buffer. The final concentrations of DPPIV, FAP, and PREP were […], respectively. To each required well in columns 2-10, 180 μL was added separately. Column 1 (A, B, C) was prepared with 200 μL of the appropriate assay buffer as a control. Column 1 (D, E, F, G, H) was prepared using 20 μL of appropriate assay buffer and 180 μL of enzyme as an inhibitor-free control. […]
7) Fluorescence was measured at λex: 380, λem: 460. […]

The term EC50 denotes the concentration giving half of the maximal effect. For orientation: IC50 means the point on the concentration scale where inhibition reaches its midpoint. Take `N#C[C@@H]1CC(F)(F)CN1C(=O)CNC(=O)c1cccc2c1CCN(C(=O)CCC(=O)NCCNC(=O)CCC(C(=O)O)N1CCN(CC(=O)O)CCN(CC(=O)O)CCN(CC(=O)O)CC1)C2` (stereo partly drawn) [JHH5]: the concentration for a half-maximal effect (EC50) in the assay with HT1080 8 #cells (EC50 (ng/mL) converted with molecular weight, read-out: EC50) came out at 1.82 nM; in the assay on HT1080 8 #cells (competition with ^177Lu-FAPi-46, on ice 2 hours) it was 1.726 ng/mL. In addition, the IC50 in assay [1] was over 1000 nM.
